# Tested on: K562
# Test: cells
# Design: MTT cell growth inhibition after 48 h
# Conditions: Homo sapiens, K562, 48 h
# Procedure: (§1) Exponential‐phase cells were seeded into 96‐well plates at a density of 2 × 10^4 cells per well in complete medium. After 24 h, cells were treated with drugs at indicated concentrations and incubated for 48 h. Fresh medium containing 20 μL MTT solution (5 mg·mL^−1) was then added to each well. Then plates were incubated for another 4 h at 37 °C. After removing the medium, 150 μL DMSO was added to each well. The absorbance was recorded at 490 nm in the microplate reader and the inhibition ratio (I%) was calculated. The cell growth assay was conducted as described previously. […] To identify an EPHB4‐specific inhibitor with a potential of rapid translation into clinic, a pool of clinically approved TKIs and compounds was screened in this study (Fig. S2 and Table S4).
row,Structure (SMILES),IC50
1,"COc1cc2c(Nc3ccc(Br)cc3F)ncnc2cc1OCC1CCN(C)CC1 [vandetanib, N‐(4‐bromo‐2‐fluorophenyl)‐6‐methoxy‐7‐[(1‐methylpiperidin‐4‐yl)methoxy]quinazolin‐4‐amine]",2180 ± 1070 nM

# Tested on: MEG-01 cells
# Test: cells
# Design: MTT cell growth inhibition after 48 h
# Conditions: Homo sapiens, MEG-01, 48 h
# Procedure: as §1
row,Structure (SMILES),IC50
1,"COc1cc2c(Nc3ccc(Br)cc3F)ncnc2cc1OCC1CCN(C)CC1 [vandetanib, N‐(4‐bromo‐2‐fluorophenyl)‐6‐methoxy‐7‐[(1‐methylpiperidin‐4‐yl)methoxy]quinazolin‐4‐amine]",1460 ± 1070 nM

# Tested on: H9 cells
# Test: cells
# Design: MTT cell growth inhibition after 48 h
# Conditions: Homo sapiens, H9, 48 h
# Procedure: as §1
row,Structure (SMILES),IC50
1,"COc1cc2c(Nc3ccc(Br)cc3F)ncnc2cc1OCC1CCN(C)CC1 [vandetanib, N‐(4‐bromo‐2‐fluorophenyl)‐6‐methoxy‐7‐[(1‐methylpiperidin‐4‐yl)methoxy]quinazolin‐4‐amine]",11200 ± 1080 nM

# Molecular target: T1, ephrin type‐B receptor 4 (EPHB4) (Homo sapiens, UniProt P54760)
# T1 construct: EPHB4 kinase (Carna Biosciences)
# T1 sequence (P54760 16-987): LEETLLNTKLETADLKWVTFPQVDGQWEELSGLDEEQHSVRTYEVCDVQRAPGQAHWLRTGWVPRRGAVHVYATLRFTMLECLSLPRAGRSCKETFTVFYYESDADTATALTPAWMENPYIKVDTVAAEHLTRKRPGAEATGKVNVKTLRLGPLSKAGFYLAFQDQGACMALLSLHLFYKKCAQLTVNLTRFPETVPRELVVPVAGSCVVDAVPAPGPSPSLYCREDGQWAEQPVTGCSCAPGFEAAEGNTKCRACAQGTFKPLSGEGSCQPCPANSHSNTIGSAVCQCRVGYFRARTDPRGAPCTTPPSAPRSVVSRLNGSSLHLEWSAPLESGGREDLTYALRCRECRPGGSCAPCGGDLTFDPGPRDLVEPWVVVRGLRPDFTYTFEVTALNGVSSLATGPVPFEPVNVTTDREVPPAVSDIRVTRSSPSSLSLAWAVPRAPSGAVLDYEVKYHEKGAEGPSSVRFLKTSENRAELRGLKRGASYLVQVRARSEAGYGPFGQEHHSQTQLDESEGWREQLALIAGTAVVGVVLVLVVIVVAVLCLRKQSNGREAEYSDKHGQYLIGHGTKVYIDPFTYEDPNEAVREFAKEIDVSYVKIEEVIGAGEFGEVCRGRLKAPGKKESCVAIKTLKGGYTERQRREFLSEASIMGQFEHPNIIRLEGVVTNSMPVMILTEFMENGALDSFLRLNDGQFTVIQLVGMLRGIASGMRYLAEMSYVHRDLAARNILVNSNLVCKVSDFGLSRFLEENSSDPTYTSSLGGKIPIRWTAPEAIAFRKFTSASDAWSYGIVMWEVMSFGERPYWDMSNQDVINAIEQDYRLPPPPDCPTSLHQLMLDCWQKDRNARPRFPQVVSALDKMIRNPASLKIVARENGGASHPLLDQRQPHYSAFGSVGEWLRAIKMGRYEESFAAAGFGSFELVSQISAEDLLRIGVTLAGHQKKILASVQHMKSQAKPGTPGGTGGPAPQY
# Test: Kinase‐Glo Plus luminescence kinase assay; SPR binding also measured
# Assay type: biochemical
# Conditions: not given
# Text: Kinase‐Glo Plus luminescence kinase assay; SPR binding also measured on ephrin type‐B receptor 4 (EPHB4) | […]
row,Structure (SMILES),IC50
1,Cc1ccc(C(=O)Nc2cccc(C(F)(F)F)c2)cc1Nc1nc(-c2cccnc2)nc2c1cnn2C [NVP‐BHG712],349 nM

# Tested on: K562
# Test: cells
# Design: MTT cell growth inhibition assay, absorbance at 490 nm
# Conditions: Homo sapiens, K562, 48 h, read-out: Inhibition rate (%, 10 μM)
# Procedure: as §1, with “previously. K562 cells were cultured in IMDM containing 10% fetal bovine serum, 100 U·mL^−1 penicillin and 100 U·mL^−1 streptomycin. […] MEG‐01 cells were cultured in DMEM containing 10% fetal bovine serum, 100 U·mL^−1 penicillin and 100 U·mL^−1 streptomycin. […] Cells were grown at 37 °C in a humidified atmosphere with 5% CO2.” for “previously.”
row,Structure (SMILES),inhibition at 10 µM
1,CN(c1nccc(=O)[nH]1)C1CCN(c2nc3ccccc3n2Cc2ccc(F)cc2)CC1 [mizolastine],-89.1%
2,CCOC(=O)C1(c2ccccc2)CCN(C)CC1 [pethidine],-43.7%
3,COc1cc2nccc(Oc3ccc(NC(=O)C4(C(=O)Nc5ccc(F)cc5)CC4)cc3)c2cc1OC [cabozantinib],90.1%
4,CC(C)[C@H](N)C(=O)OCCOCn1cnc2c(=O)nc(N)[nH]c21 [valaciclovir],-63.9%
5,O=C(/C=C/c1ccc(O)cc1)c1ccc(O)cc1O [isoliquiritigenin],-123%
6,CC(=O)Nc1ccc(OCC(O)CNC(C)C)cc1 (stereo not shown) [practolol],-62.1%
7,COc1ccc([C@@H]2CC(=O)c3c(O)cc(O[C@@H]4O[C@H](CO)[C@@H](O)[C@H](O)[C@H]4O[C@@H]4O[C@@H](C)[C@H](O)[C@@H](O)[C@H]4O)cc3O2)cc1O [neohesperidin],-49.4%
8,CS(=O)(=O)CCNCc1ccc(-c2ccc3ncnc(Nc4ccc(OCc5cccc(F)c5)c(Cl)c4)c3c2)o1 [lapatinib],98.8%
9,CNC(=O)c1cc(Oc2ccc(NC(=O)Nc3ccc(Cl)c(C(F)(F)F)c3)cc2)ccn1 [sorafenib],73.4%
10,"COc1cc2c(Nc3ccc(Br)cc3F)ncnc2cc1OCC1CCN(C)CC1 [vandetanib, N‐(4‐bromo‐2‐fluorophenyl)‐6‐methoxy‐7‐[(1‐methylpiperidin‐4‐yl)methoxy]quinazolin‐4‐amine]",99.7%
11,OCc1cc(C(O)CNCCCCCCOCCCCc2ccccc2)ccc1O (stereo not shown) [salmeterol],-72.7%
12,COc1cc(C=O)ccc1O [vanillin],-86.2%
13,Nc1nc2c(ncn2COCCO)c(=O)[nH]1 [acyclovir],-42.6%
14,Cc1nnc(C(C)C)n1[C@@H]1C[C@H]2CC[C@@H](C1)N2CC[C@H](NC(=O)C1CCC(F)(F)CC1)c1ccccc1 [maraviroc],-56.3%
15,COC(=O)CCc1ccc(OCC(O)CNC(C)C)cc1 (stereo not shown) [brevibloc],-12.6%
16,CN(C)CCC(c1ccc(Cl)cc1)c1ccccn1 (stereo not shown) [chlorpheniramine],-42.9%
17,CC(NC(C)(C)C)C(=O)c1cccc(Cl)c1 (stereo not shown) [bupropion],-48.5%
18,CCN(CC)CCNC(=O)c1c(C)[nH]c(/C=C2\C(=O)Nc3ccc(F)cc32)c1C [sunitinib],73.5%
19,CCOc1ccccc1OCCN[C@H](C)Cc1ccc(OC)c(S(N)(=O)=O)c1 [tamsulosin],-35.2%
20,Cc1ccc(Nc2nccc(N(C)c3ccc4c(C)n(C)nc4c3)n2)cc1S(N)(=O)=O [pazopanib],76.2%

# Tested on: K562
# Test: cells
# Design: MTT cell viability of wild-type K562 beside EPHB4 mutant sublines, 48 h
# Conditions: Homo sapiens, K562, 48 h; read-out: IC50 (uM) K562-WT
# Procedure: Exponential‐phase cells were seeded into 96‐well plates at a density of 2 × 10^4 cells per well in complete medium. After 24 h, cells were treated with drugs at indicated concentrations and incubated for 48 h. Fresh medium containing 20 μL MTT solution (5 mg·mL^−1) was then added to each well. Then plates were incubated for another 4 h at 37 °C. After removing the medium, 150 μL DMSO was added to each well. The absorbance was recorded at 490 nm in the microplate reader and the inhibition ratio (I%) was calculated. The cell growth assay was conducted as described previously. […] Similar results were shown for M4 mutants. […] (a) Three‐dimensional structure graph; (b) binding region; (c) plane schematic of interaction between the receptor and ligand. (B) Genomic position of sgRNAs and PAMs for EPHB4 knock‐out line, PAM site was colored in red. (C) The protein expression of EPHB4 in K562, K562‐Crispr‐1 and K562‐Crispr‐2 cells determined by western blot assay. P‐values were generated by one‐way ANOVA using the Tukey test for multiple comparisons. **P < 0.01 versus the K562 group. […] P‐values were generated by one‐way ANOVA using the Tukey test for multiple comparisons. *P < 0.05 versus the K562 group. (E) Five point‐mutation (M1–M5) and their corresponding wild‐type (WT) sequences. The point‐mutations of EPHB4: M1, I14A, G15A; M2, M83A, N85A, G86A; M3, A87Del; M4, S90A, F91A; M5, R93A, L94A. […]
row,Structure (SMILES),IC50
1,"COc1cc2c(Nc3ccc(Br)cc3F)ncnc2cc1OCC1CCN(C)CC1 [vandetanib, N‐(4‐bromo‐2‐fluorophenyl)‐6‐methoxy‐7‐[(1‐methylpiperidin‐4‐yl)methoxy]quinazolin‐4‐amine]",2.05 ± 1.08 µM
